Laboratory results taken from US20110251143A1, “STABLE ELSAMITRUCIN SALT FORMULATIONS” (Spectrum Pharmaceuticals, Inc., priority 2007, published 2011).

Tests used:
[1] = solubility of the p-TSA salt checked by HPLC; format: physicochemical; conditions: for solubility at pH 4 / Concentration (mg/mL) / solubility in water / Concentration: HPLC; for solubility in water / Concentration: slurry stirred at room temperature for six hours
Excerpt: The solubility of the p-TSA salt in water was checked by HPLC after stirring the slurry at room temperature for six hours.

[2] = solid state stability, drying at elevated temperatures (NMR); format: physicochemical; conditions: vacuum oven 75° C. nine hours; 98° C. overnight; NMR 1:1 salt ratio
Procedure: (§1) Elsamitrucin salts made in accordance with the teachings of the present disclosure were tested for stability. Two samples of the isolated p-TSA salt (40 mg each) were placed in a vacuum oven at 75° C. for nine hours. After this exposure, sample #1 was taken out, the temperature was increased to 98° C. and the second sample was dried overnight. […] The weight loss by TGA was approximately 2.5% for both samples. Karl Fischer analysis indicated the two lots still had water present: sample #1 had 4.0% water content and #2 had 4.6%. The p-TSA salt (16 mg) of elsamitrucin was dissolved in 1.6 mL of benzoate buffer (pH 4) and stirred at 50° C. for ten days. Samples for HPLC and MS were taken in 3, 5, and 10 days.

[3] = solution stability in benzoate buffer (HPLC, MS); format: physicochemical; conditions: benzoate buffer (pH 4), 50° C., ten days, samples at 3, 5, 10 days
Procedure: as §1

[4] = tested on: B16F10 murine melanoma cells; assay: MTT cell growth inhibition, B16F10; format: cell-based; conditions: 5-10 days
Procedure: (§2) The following experiment confirms that the elsamitrucin salts made in accordance with the teachings of the present disclosure retain their in vitro anti-neoplastic activity when compared to elsamitrucin base. Elsamitrucin and elsamitrucin tosylate were tested in vitro using: B16F10 (murine […]), HCT 116 (human colon), HT29 (human colon) and SK-MES-1 (human non-small cell lung carcinoma). Cell growth inhibition was evaluated in 96-well micro-culture plates with a semi-automated MTT (3-(4,5-dimethylthiazol-2-yl)-2,5-diphenyltetrazolium bromide) assay. […]
(§3) Cell culture plates seeded with test cells and various concentrations of elsamitrucin solutions were placed in a humidified incubator at 37° C., with CO2 and 95% air for 5-10 days. […] Absorbance was monitored at a wavelength of 595 nm, and at a reference wavelength of 650 nm, using a TECAN® GENios mocroplate reader. In all experiments, absorbance data was acquired for each agent at two overlapping concentration ranges. […]
(§4) The results of each test were stored and imported into PRISM® 3.03 for graphical analysis and determination of IC50 values. All results were graphed as a percentage of controlled absorbance versus the drug concentration. […]

[5] = tested on: HCT 116 human colon carcinoma; assay: MTT cell growth inhibition, HCT 116; format: cell-based; conditions: HCT 116, MTT, 5-10 days
Procedure: as §2, §3, §4

[6] = tested on: SK-MES-1 human non-small cell lung carcinoma; assay: MTT cell growth inhibition, SK-MES-1; format: cell-based; conditions: SK-MES-1, MTT, 5-10 days
Procedure: as §2, §3, §4

[7] = tested on: HT29 human colon carcinoma; assay: MTT cell growth inhibition, HT29; format: cell-based; conditions: 5-10 days
Procedure: as §2, §3, §4

Substance: elsamitrucin tosylate [Elsamitrucin p-TSA Salt]
- Vial Concentration ([1]; pH 4 (benzoate buffer)): 0.01789 M
- solubility at pH 4 / Concentration (mg/mL) ([1]; pH 4 (benzoate buffer)): 14.7 mg/mL
- solubility at pH 4 / Concentration (mg/mL) ([1]; pH 4 (benzoate buffer), listed as OVL-A-143): 14.78 mg/mL
- Vial Concentration ([1]; water): 0.01891 M
- solubility in water / Concentration ([1]; water): 15.6 mg/mL
- solubility in water / Concentration ([1]; water, listed as OVL-A-137): 15.61 mg/mL
- decomposition in the solid state during drying [2]: no decomposition
- decomposition in solution [3]: No evidence of the decomposition product
- IC50 [4]: 28 nM
- IC50 [5]: 79 nM
- IC50 [6]: 45 nM
- IC50 [7]: 105 nM
